Experimental data taken from patent US11226332B2, “Method for the detection, preparation and depletion of CD4+ t lymphocytes” (IMCYSE SA, priority 2013, dated 2022).

Assays:
[1] = tested on: human peripheral blood CD4+ T cells; assay: DQ8 tetramers loaded with insulin B9-23 peptide, facs sorting of CD4+ T cells for TCR alpha chain sequencing; format: cell-based; conditions: control SEQ ID 10 without thioreductase motif
Source text: Expression of human DQ8 MHC class II molecule is associated with reactivity to a major epitope of insulin, located in the beta chain of insulin within the amino acid sequence 9-23. Human peripheral blood naïve T cell repertoire frequently contains cells expressing germline encoded alpha chain sequences, called Trav13-1, associated with various beta chain sequences, but which are sufficient as to confer a low affinity reaction with the B9-23 insulin epitope when presented by DQ8.
Peptides encompassing the sequences of the B9-23 epitope with a thioreductase motif and a one amino acid glycine linker are produced, namely […] INS9-23 (SEQ ID 9) and control peptides without thioreductase motif and linker […] INS9-23 (SEQ ID 10)
Tetramers of DQ8 are produced and loaded with each one of peptides of SEQ ID 9 or SEQ ID 10. Loaded tetramers are incubated with human peripheral blood CD4+ T cells. Cells are washed, analysed by facs and sorted out. Cells are then washed from tetramers and used for TCR alpha chain sequencing using corresponding primers.

[2] = tested on: CD4+ T cells from peripheral blood; assay: MHC class II tetramers loaded with influenza hemagglutinin peptide, counting of CD4+ T cells by facs before and after vaccination; format: cell-based; conditions: fluorescence-labeled MHC class II tetramers loaded with peptide; compared with peptide of SEQ ID 4 without thioreductase motif
[3] = tested on: MOG-specific naïve CD4+ T cells; assay: DRB1*1501 MHC class II tetramers loaded with MOG peptide, detection of naïve CD4+ T cells by facs; format: cell-based, human; conditions: DRB1*1501 tetramers loaded with peptide, 2 h at 37° C, control: same peptide without thioreductase motif (SEQ ID NO:2)
Method: Naïve CD4+ T cells are prepared from the peripheral repertoire of DRB1*1501+ subjects susceptible to suffer from multiple sclerosis, using magnetic beads to remove CD4(−) cells and memory cells, as described in the art. Tetramers of DRB1*1501 are made as known in the art (Kasprowicz V et al. (2006) J. Virol. 80, 11209-112017), including a fluorescent label such as Ficoerythrin. A synthetic peptide is produced, which encompasses the corresponding class II-restricted MOG
T cell epitope and a thioreductase motif CGPCSRVVHLYRNGK D [SEQ ID NO: 1], which corresponds to amino acid residues 47-58 of the MOG protein.
Tetramers are loaded with peptide of SEQ ID 1 overnight at room temperature in the appropriate buffer conditions as known in the art. Loaded tetramers are then washed and incubated with naïve CD4+ T cells for 2 h at 37° C. The suspension is then read with a fluorescence-activated cell sorting (facs) system and the proportion of naïve cells specific to the MOG peptide evaluated Control experiments are performed with MHC complex with the same peptide without thioreductase motif. SRVVHLYRNGKD [SEQ ID NO:2].

[4] = tested on: GAD65-specific CD4+ T cells; assay: Sorting of GAD65-specific CD4+ T cells from NOD mouse spleen with peptide-loaded class II tetramers and expansion to cytolytic CD4+ T cells; format: cell-based, NOD mice
Method: NOD (non-obese diabetic) mice spontaneously develop diabetes by progressive destruction of insulin-producing Langerhans islet cells. NOD mice are considered as a representative pre-clinical model of human IDDM. Effector CD4+ T cells against GAD65 are prepared from the spleen of diseased animals by first depleting non-CD4+ cells. CD4+ cells are then incubated with class II tetramers loaded with a GAD65 class II restricted epitope encompassing a thioreductase motif in flanking residues.
The sequence of the peptide is therefore CRLCKVAPVIKARMM (GAD65 524-543) (SEQ ID NO: 7) A peptide of GAD65 without thioreductase motif is prepared for control experiments KVAPVIKARMM (SEQ ID NO: 8).
Cells are then sorted by facs according to their binding of peptide-loaded tetramers. Positive cells are then maintained in culture and stimulated with APC loaded with peptide of SEQ ID 7 to generate cytolytic CD4+ T cells, as described in the WO2008017517 patent application.

[5] = tested on: Dby-specific CD4+ T cells; assay: Depletion of Dby-specific CD4+ T cells with peptide-loaded H-2b class II beads, then male bone marrow grafting in reconstituted RAG2 KO mice; format: in vivo, mouse; conditions: RAG2 KO mice reconstituted with female H-2b lymphocytes depleted on beads coated with class II H-2b molecules loaded with peptide
Source text: In the mouse model, male bone marrow is rejected by syngeneic females due to recognition of H-Y encoded antigens among which the Dby protein plays a major role. A majority of CD4+ T cells recognize an epitope made of residues FNSNRANSS of the murine Dby antigen which is encoded by the […]
A synthetic peptide made of this class II restricted T cell epitope with a thioreductase motif is produced, corresponding to CHGCFNSNRANSS [SEQ ID NO:5] and the corresponding Dby peptide in natural configuration is produced as a control, namely […].
Lymphocytes from the spleen of female H-2b mice are prepared by magnetic bead sorting. The cells are then incubated with a suspension of beads coated with class II H-2b molecules and loaded with peptide of SEQ ID 5 or of SEQ ID 6. Lymphocytes T cells, containing all CD4+ T cells not retained on beads and CD8+ T cells, are used to reconstitute RAG2 KO mice, which are then engrafted by the bone marrow of a male syngeneic donor. RAG2 KO mice have no functional adaptive immune system and are therefore unable to reject the graft. Rejection is thereby depending only of cells present in the passively transferred population.

In the case of “CGHCGSHLVEALYLVCGERG (redox motif + glycine linker+ insulin epitope) [SEQ ID 9]”, the “number of cells obtained by tetramer sorting for TCR sequencing” value [1] was “obtained in sufficient number as to allow TCR sequencing”.
In the case of “CGHCKYVKQNTLKHEMAGG (redox motif + influenza hemaglutinin epitope) [SEQ ID 3]”, the “number of CD4+ T cells detected in peripheral blood” value [2] was “higher number of CD4+ T cells are detected”.
With CGPCSRVVHLYRNGKD [SEQ ID 1] the “detection of naïve CD4+ T cells specific to the MOG sequence” value [3] was “able to detect naïve CD4+ T cells”.
For “CRLCKVAPVIKARMM (redox motif + GAD65 epitope) [SEQ ID 7]”, the “yield of GAD65-specific cytolytic CD4+ T cells” value ([4]; tetramer sorting compared with the method of WO2008017517 (peptide added to T cells from spleen of NOD mice)) was “higher” and the “yield of GAD65-specific cytolytic CD4+ T cells” value ([4]; tetramers loaded with peptide of SEQ ID 7 instead of peptide of SEQ ID 8) was “significantly increased”.
With FNSNRANSS (Dby epitope) [SEQ ID 6] the “graft acceptance (male bone marrow)” value [5] was “no improvement of graft acceptance”.
